The text below walks through data of patent US20100137433A1, “Production of Rosmarinic Acid from Spearmint and uses Thereof” (priority 2007, published 2010).

Bounds are passed on as bounds.

Data set [1] concerns mice exposed to diesel dust particulates. The following applies: 2 mg/day for 3 days prior to exposure; cited from earlier work.
In data set [2] the test system is mild allergic asthmatic subjects. In words: Allergen inhalation challenge (allergen-induced bronchoconstriction, EAR and LAR). Type of data set: in vivo, human. On the procedure:
(§1) Subjects. Two subjects (person) were recruited for the study. Inclusion criteria required subjects to be non-smokers with stable, mild atopic asthma, free of other lung disease. Subjects were required to have FEV1 (forced expiratory volume in 1 second)>70% of predicted, baseline methacholine PC20 (the provocative concentration of methacholine causing a 20% fall in FEV1)<16 mg/mL, and development of an allergen-induced EAR (at least 20% fall in FEV1 within 2 h post allergen inhalation) and LAR (at least 15% fall FEV1 between 3-7 h post allergen inhalation).
(§2) Study design. Subjects meeting the inclusion criteria underwent allergen challenge with placebo and rosmarinic acid, in this order, separated by a washout period of at least 4 weeks. Placebo was inhaled PBS on 2 consecutive mornings before challenge. Rosmarinic acid treatment consisted of 7 days of 2 cups of tea per day. Day 6 consisted of pre-dose measurements of airway hyperresponsiveness and sputum cells. On Day 7 allergen inhalation challenge was performed. Measurements of FEV1 were taken at regular intervals until 7 h after challenge and sputum cells were then collected. […]
Allergen challenge was performed as described by O'Byrne (1987), and the concentration of allergen extract (Omega Laboratories, Montreal, QC) for inhalation was determined from a formula described by Cockcroft et al. (1987). […]

The test system of data set [3] is seasonal allergic rhinitis. The settings on record: active treatment; cited from earlier work.
Data set [4] concerns mild allergic asthmatic subjects. In words: Methacholine inhalation test (methacholine PC20, airway hyper-responsiveness). The data set is classed as in vivo, human. The settings on record: tea 2 cups per day for 7 days. On the procedure:
Subjects. Two subjects (45 and 57 year old, male) were recruited for the study. Inclusion criteria required subjects to be non-smokers with stable, mild atopic asthma, free of other lung disease. Subjects were required to have FEV1 (forced expiratory volume in 1 second)>70% of predicted, baseline methacholine PC20 (the provocative concentration of methacholine causing a 20% fall in FEV1)<16 mg/mL, and development of an allergen-induced EAR (at least 20% fall in FEV1 within 2 h post allergen inhalation) and LAR (at least 15% fall FEV1 between 3-7 h post allergen inhalation).
as §2
Methacholine inhalation challenge was performed as described by Cockcroft (1985). The test was terminated when a fall in FEV1 of 20% of the baseline value occurred, and the methacholine PC20 is calculated.

The next data set relates to Aβ25-35-injected mice. The settings on record: Aβ25-35 injection; cited from earlier work.
For data set [5] the following is noted: cited from earlier work.
Data set [6] deals with mild allergic asthmatic subjects. Put plainly: Sputum analysis (allergen-induced airway inflammation, sputum eosinophils). The data set is classed as in vivo, human. The following applies: vs placebo, two subjects, FIGS. 4A-4B. As for the experimental part: as §1, §2
Sputum was induced and processed using the method described by Pizzichini et al. (1996). Differential cell counts were obtained and an aliquot of cells were lysed for quantitative PCR measurements.

Data set [7] can be described thus: Stability of rosmarinic acid in dried and stored spearmint 700B tissues. Type of data set: physicochemical. The following applies: heated to 80° C. for an additional 24 hours after drying to 11.7% moisture. As for the experimental part:
The level of rosmarinic acid in dried and stored samples of spearmint line 700B tissues was followed over time to determine its stability. Spearmint plant tissue was harvested, dried, and stored, and levels of rosmarinic acid were determined essentially as described by Fletcher et al., (2005a). Plant material was harvested manually from the field and placed in large net bags. The bagged mint […] spread evenly over a grate and dried in a drying oven at a temperature of 35° C. for 96 hours. The stems and other debris were separated from the leaves, and the leaves were crushed to a size suitable for tea. The crushed leaf material was transferred to zip-lock bags and stored at room temperature in the absence of light. Additionally, to study the effect of drying temperature on stability of RA, a sample of spearmint plant material was dried to 11.7% moisture as above for determination of RA content. After 96 hours, a sample of the material was placed into a drying oven and heated to 80° C. for an additional 24 hours, and RA levels were also determined.

In the case of `O=C(/C=C/c1ccc(O)c(O)c1)O[C@H](Cc1ccc(O)c(O)c1)C(=O)O` [RA, α-O-caffeoyl-3,4-dihydroxyphenyl-lactic acid], the “Protein and DNA damage in lung tissue (postmortem histological staining) compared to controls” value in data set [1] was “marked decrease”. In addition, in data set [2] (subject #20, vs placebo, allergen 1:128 dilution with RA, 1:64 with diluent), the “Allergen-induced EAR” value is “lower”. In addition, the “Effect on the allergen-induced EAR or LAR” value in data set [2] (two subjects, limited sample size) was “does not appear to have any effect”. Besides, the “Numbers of neutrophils and eosinophils in nasal lavage fluid” value in data set [3] is “significantly decreased”. Besides, the “Methacholine PC20” value in data set [4] (subject 19, 24 h post allergen challenge (cat)) was found to be 0.38 mg/mL; in data set [4] (subject 20, 24 h post allergen challenge (HDMDP)), 1.27 mg/mL. The “Effective lowest dose preventing Aβ25-35-induced nitration of proteins in the hippocampus” value with Aβ25-35-injected mice is listed as 0.25 mg/kg. For the same compound, in data set [5] (rat urine), the “Recovery of intact rosmarinic acid and metabolites in urine” value is 0.077 % of the amount ingested. For the same compound, the “Time to full concentration in the blood plasma” value in data set [5] (rats, absorbed via the small intestine) was not above 30 min. For the same compound, the “% sputum eosinophils post allergen” value in data set [6] is reported as “consistently lower”. In addition, the “Amount of RA in the tissues before and after the 80° C. drying step” value in data set [7] is recorded as “remained the same”.
